Measurements: US20230218710A1, “METHOD OF TREATING CORONAVIRUS INFECTIONS” (priority 2020, published 2023)
Marks after values point to notes of the source that are not given here.

Tested on: LPS-induced acute lung injury mouse model
Assay: LPS-induced acute lung injury model in mouse (Example 7)
Format: in vivo, mice
Conditions: 4 h after LPS, 5 mg/kg i.p.
Description: The effect of the peptides of the current invention on acute lung injury can be assessed in an LPS-induced acute lung injury mouse model by monitoring outcomes such as lung weight, fluid accumulation, cytokine secretion in blood or bronchoalveolar lavage fluid (BALF). Acute lung injury was induced in male C57BL/6 mice (6 to 8 weeks old) by intratracheal administration of 40 μL lipopolysaccharide (LPS) (Sigma Aldrich, St. Louis, Mo.) in PBS at 5 mg/kg. Control animals received intratracheal PBS alone. Animals (n=8 per treatment group) induced with LPS received intraperitoneal treatment with: PBS (vehicle control) or test peptides at 5 mg/kg in water. Treatments were administered 1 h prior to LPS. At 4 h post LPS administration, tissues were harvested. Lungs were weighed, flushed with Hanks Buffer to provide bronchoalveolar lavage fluid (BALF). Data for test peptides were compared to the vehicle control group. Table 11 compares the lung weights following LPS induction and treatment with PBS (vehicle control) or peptides. Table 12 compares the levels of pro-inflammatory cytokines in BALF following LPS induction and treatment with PBS (vehicle control) or peptides.

Substance: (PEG12)KRRLLGLVFQSLCG(dA) (KRRLLGLVFQSLCGA; N-terminal PEG12; C-terminal D-alanine; (1)..(1) PEG12; (15)..(15) D-Ala) [SEQ ID NO: 37]
- Mean (SEM) Lung Weight: 0.259 (0.004)*** g
- Pro-inflammatory Cytokine Level IFNγ (BALF): 0.13 pg/mL
- Pro-inflammatory Cytokine Level IL-1β (BALF): 72.5 pg/mL
- Pro-inflammatory Cytokine Level IL-2 (BALF): 0.60 pg/mL
- Pro-inflammatory Cytokine Level IL-4 (BALF): 0.86 pg/mL
- Pro-inflammatory Cytokine Level IL-6 (BALF): 3080 pg/mL
- Pro-inflammatory Cytokine Level IL-9 (BALF): 4.74 pg/mL
- Pro-inflammatory Cytokine Level KC/GRO (BALF): 2660 pg/mL
- Pro-inflammatory Cytokine Level TNFα (BALF): 3850 pg/mL
